Measurements reported in patent publication US11191811B2, “Osteocalcin as a treatment for frailty associated with aging” (THE TRUSTEES OF COLUMBIA UNIVERSITY IN THE CITY OF NEW YORK, priority 2014, dated 2021).

Assays:
Gprc6a−/− myotubes = assay: Gene expression (qPCR) in myotubes treated with Ocn; type: cell-based, mouse
Description: Serum osteocalcin, PINP, CTX, and insulin levels were measured using ELISA assays. Blood glucose level was measured using an Accu-Check glucometer. Urine 3-MHT was measured as previously described (Aranibar et al., 2011, Anal. Biochem. 410:84-91). Determination of cAMP accumulation was performed using a commercial kit (R&D). For gene expression, 1 μg of total RNA was reverse transcribed into cDNA. qPCR analyses were performed using a SYBER green master mix (Applied Biosciences) and a CFX-Connect real time PCR (Bio-Rad). Relative expression levels of each gene were normalized to that of Hprt or Gapdh. For in situ hybridization, muscle was frozen in liquid N2-cooled methylbutane. Samples were sectioned at 10 μm using a cryostat. In situ hybridization was performed with a DIG-labeled riboprobe as previously described (Oury et al., 2011, Cell 144:796-809).
Culture of skeletal muscle myoblasts from 7 day-old mice was performed as described (Gharaibeh et al., 2008, Nature Protocols 3:1501-1509). Myoblasts were differentiated into myotubes for 3-4 days in a medium containing 5% horse serum. Muscle fibers were isolated from flexor digitorum brevis muscle. Muscles were dissected with DMEM 2% collagenase for 2 hours at 37° C., in a 5% CO2 incubator. Muscle fibers were disaggregated from the tissue using a wide bore pipet and plated in matrigel-coated plates at approximately 50% confluence. […]

[1] = tested on: glycolytic and oxidative muscles of WT mice; assay: In vivo 3H-2-DG glucose uptake in muscle after exercise; parameters: species or system mouse; details: older WT mice receiving Ocn (500 ng/g) before running; greater extent in oxidative than glycolytic muscles
Description: FIG. 31. Osteocalcin treatment increases muscle function in young and old WT mice. (A-B) Performance during endurance exercise of 3 month-old WT, Gprc6af/f and Gprc6aMck−/− female mice treated with Ocn (n=6-10 per group). (C) Performance during endurance exercise of 12 and 15 month-old WT female mice treated with Ocn (n=6-10 per group). (D) Western blot analysis of Akt phosphorylation (Ser473) in muscles of WT mice injected with Ocn (500 ng/g) after a single bout of exercise. (E) Western blot analysis of AMPK phosphorylation ([…]) in muscles of WT mice injected with Ocn (500 ng/g) after a single bout of exercise. […]
Glucose and insulin tolerance tests were performed as previously described (Lee et al., 2007, Cell 130:456-469). For in vivo glucose uptake, a bolus of 2-deoxy-d-[^3H]glucose (^3H-2-DG, Perkin Elmer) (10 μCi) was administered before an endurance run. ^3H-2-DG and ^3H-2-DG-6-P content in muscle was determined by liquid scintillation counter and normalized to muscle weight. […] GLUT4 translocation was determined by flow cytometry using an antibody against the extracellular domain of the GLUT4 protein (Santa Cruz, Sc-1606). […] To analyze mitochondrial function, myofibers were treated with three compounds in succession (oligomycin 10 μg/ml, FCCP 200 μM, rotenone 0.2 μM) and OCR was recorded following administration of each of them.

Osteocalcin−/− embryos = assay: Brain histology, apoptosis and Western blot of Osteocalcin−/− offspring of injected Osteocalcin−/− mothers; type: in vivo, mouse
Description: FIG. 13. Maternal osteocalcin determines spatial learning and memory in adult offspring. (A-F) DLT (A), EPMT (B), OFT (C), FST (D), TST (E), and MWMT (F) performed in 3-month-old Osteocalcin^−/− mice born from Osteocalcin^−/− mothers injected once a day with vehicle or recombinant uncarboxylated osteocalcin (240 ng/day) during pregnancy compared to WT mice. (G) Surface of the lateral ventricle over brain area (%) of E18.5 hippocampi coronal sections of WT embryos originating from WT mothers and Osteocalcin^−/− embryos originating from osteocalcin-injected Osteocalcin^−/− mothers. (H) Number of apoptotic cells (stained by TUNEL assay) of E18.5 hippocampi coronal sections of WT embryos originating from WT mothers and Osteocalcin^−/− embryos originating from Osteocalcin^−/− mothers injected with osteocalcin (240 ng/day). (I) Cresyl violet, NeuN immunofluorescence, and dentate gyrus area (% versus WT) of WT and Osteocalcin^−/− embryos originating from osteocalcin-injected Osteocalcin^−/− mothers. Scale bars=0.5 mm.
Immunofluorescence of whole adult and embryonic brains was performed on […] coronal cryostat slices of tissue fixed with 4% PFA, embedded in cryomatrix (Tissue-Tek) and stored at −80° C. Sections were allowed to dry at room temperature, post-fixed in 4% PFA followed by permeabilization with 0.1% Triton detergent. After room temperature blocking with donkey serum, sections were incubated with anti-Neun antibody (Millipore) overnight at 4° C. Slides were mounted with Fluorogel (Electron Microscopy Sciences).
Cresyl violet staining to visualize brain morphology was carried out by incubating 20 μm cryosections defatted with 1:1 chloroform:ethanol in cresyl violet acetate (1 g/L) overnight. The stain was differentiated using ethanol and xylene and mounted using DPX mounting medium for histology (Sigma).
To assess apoptosis in WT and Osteocalcin^−/− brains, 20 μm cryostat sections were processed using the APOPTAG® Fluorescein Direct In Situ Apoptosis Detection Kit (Millipore) according to manufacturer's protocol. Images were obtained using Leica DM 4000B, and Image J was used to quantify cell number and intensity of staining.
To further evaluate the importance of maternal osteocalcin for the acquisition of spatial learning and memory in adult offspring, pregnant Osteocalcin^−/− mothers from E0.5 to E18.5 were treated with injections, once a day, of osteocalcin (240 ng/day). Osteocalcin was never injected in these females or their pups after delivery. […] Likewise, the number of apoptotic cells was reduced and the number of NeuN positive cells was increased compared to Osteocalcin^−/− embryos originating from Osteocalcin^−/− mothers that were not injected (FIG. 13I-J).

[2] = E18.5 embryos, versus embryos of mothers not injected

uncarboxylated osteocalcin: Recombinant uncarboxylated mouse osteocalcin, bacterially produced, purified on glutathione beads and cleaved from the GST subunit by thrombin (YLGASVPSPDPLEPTREQCELNPACDELSDQYGLKTAYKRIYGITI)
expression of Il6 (Gprc6a−/− myotubes): not | glucose uptake in muscle [1]: increase | cerebral ventricle enlargement (Osteocalcin−/− embryos; E18.5 Osteocalcin−/− embryos, mothers injected 240 ng/day, cresyl violet): rescue | Caspase-3 cleaved protein level in the hippocampus (Osteocalcin−/− embryos; E18.5 embryos, Western blot, versus mothers not injected): decrease | number of NeuN positive cells (Osteocalcin−/− embryos; [2]): increased | number of apoptotic cells (Osteocalcin−/− embryos; [2]): reduced | thickness defect in the CA3 and CA4 regions of the hippocampus (Osteocalcin−/− embryos; adult Osteocalcin−/− originating from Osteocalcin−/− mothers): rescue
